Assays:
Format in all cases: in vivo, mouse
[1] = system: C57BL6/J and p16-3MR mice injured with bleomycin; experiment: Bleomycin-induced pulmonary fibrosis in mice
p16-positive cells = experiment: Eicosanoid synthase gene expression in livers of doxorubicin-treated or aged p16-3MR mice; conditions: liver
Procedure: RNA was extracted from cells or tissues using commercially available kits (Isolate II—Bioline for cells; Direct-zol—Zymo for tissues) according to the manufacturer's instructions. cDNA synthesis was performed using a High Capacity cDNA Reverse Transcription Kit (Thermo Fisher) according to the manufacturer's instructions. Quantitative PCR was performed on a LightCycler 480 II (Roche) using primers and probes designed for the Universal Probe Library. Primers and probes used for human transcripts were ACTB: 5′-CCAACCGCGAGAAGATGA (SEQ ID NO:1), 5′-TCCATCACGATGCCAGTG (SEQ ID NO:2), Probe #64; TUBA: 5′-cttcgtctccgccatcag (SEQ ID NO:3), 5′-ttgccaatctggacacca (SEQ ID NO:4), Probe #58; ALOX5: 5′-[…] (SEQ ID NO:5), 5′-[…] (SEQ ID NO:6), Probe #64; ALOX5AP: 5′-ggtctgcggggctacttt (SEQ ID NO:7), 5′-[…] (SEQ ID NO:8), Probe #18; ALOX12: 5′-[…] (SEQ ID NO:9), 5′-agccaggtcgtcaggag (SEQ ID NO:10), Probe #32; ALOX15: 5′-[…] (SEQ ID NO:11), 5′-[…] (SEQ ID NO:12), Probe #76; ALOX15B: 5′-[…] (SEQ ID NO:13), 5′-actgggaggcgaagaagg (SEQ ID NO:14), Probe #51; AKR1C1: 5′-catgcctgtcctgggattt (SEQ ID NO:15), 5′-[…] (SEQ ID NO:16), Probe #49; AKR1C2: 5′-ctatgcgcctgcagaggt (SEQ ID NO:17), 5′-[…] (SEQ ID NO:18), Probe #31; AKR1C3: 5′-[…] (SEQ ID NO:19), 5′-[…] (SEQ ID NO:20), Probe #78; CYSLTR2: 5′-[…] (SEQ ID NO:21), 5′-[…] (SEQ ID NO:22), Probe #18; DPEP1: 5′-gacgtcctgaggctggtg (SEQ ID NO:23), 5′-[…] […]

[2] = system: C57BL6/J and p16-3MR mice injured with bleomycin; experiment: Bleomycin-induced pulmonary fibrosis in mice; remark: listed apart in the source
Procedure: RNA was extracted from cells or tissues using commercially available kits (Isolate II—Bioline for cells; Direct-zol—Zymo for tissues) according to the manufacturer's instructions. cDNA synthesis was performed using a High Capacity cDNA Reverse Transcription Kit (Thermo Fisher) according to the manufacturer's instructions. Quantitative PCR was performed on a LightCycler 480 II (Roche) using primers and probes designed for the Universal Probe Library. Primers and probes used for human transcripts were ACTB: 5′-CCAACCGCGAGAAGATGA (SEQ ID NO:1), 5′-TCCATCACGATGCCAGTG (SEQ ID NO:2), Probe #64; TUBA: 5′-cttcgtctccgccatcag (SEQ ID NO:3), 5′-ttgccaatctggacacca (SEQ ID NO:4), Probe #58; ALOX5: 5′-[…] (SEQ ID NO:5), 5′-[…] (SEQ ID NO:6), Probe #64; ALOX5AP: 5′-ggtctgcggggctacttt (SEQ ID NO:7), 5′-[…] (SEQ ID NO:8), Probe #18; ALOX12: 5′-[…] (SEQ ID NO:9), 5′-agccaggtcgtcaggag (SEQ ID NO:10), Probe #32; ALOX15: 5′-[…] (SEQ ID NO:11), 5′-[…] (SEQ ID NO:12), Probe #76; ALOX15B: 5′-[…] (SEQ ID NO:13), 5′-actgggaggcgaagaagg (SEQ ID NO:14), Probe #51; AKR1C1: 5′-catgcctgtcctgggattt (SEQ ID NO:15), 5′-[…] (SEQ ID NO:16), Probe #49; AKR1C2: 5′-ctatgcgcctgcagaggt (SEQ ID NO:17), 5′-[…] (SEQ ID NO:18), Probe #31; AKR1C3: 5′-[…] (SEQ ID NO:19), 5′-[…] (SEQ ID NO:20), Probe #78; CYSLTR2: 5′-[…] (SEQ ID NO:21), 5′-[…] (SEQ ID NO:22), Probe #18; DPEP1: 5′-gacgtcctgaggctggtg (SEQ ID NO:23), 5′-[…] (SEQ ID NO:24), Probe #9 (SEQ ID NO:25), ELOVL2: 5′-[…] (SEQ ID NO:26), 5′-[…] (SEQ ID NO:27), Probe #53; ELOVL4: 5′-catttggcccatggattc (SEQ ID NO:28), 5′-[…] (SEQ ID NO:29), Probe #31; ELOVL5: 5′-cccttccatgcgtccata (SEQ ID NO:30), 5′-[…] (SEQ ID NO:31), Probe #31; EPHX2: 5′-ttctgctggacaccctgaa (SEQ ID NO:32), 5′-[…] (SEQ ID NO:33), Probe #45; GPX4: 5′-ttcccgtgtaaccagttcg (SEQ ID NO:34), 5′-[…] (SEQ ID NO:35), Probe #36; LTA4H: 5′-ctgctctcacggtccagtc (SEQ ID NO:36), 5′-[…] (SEQ ID NO:37), Probe #64; LTBR2: 5′-[…] (SEQ ID NO:38), 5′-[…] (SEQ ID NO:39), Probe #33; LTC4S: 5′-[…] (SEQ ID NO:40), 5′-[…] (SEQ ID NO:41), Probe #18; PTGDS: 5′-[…] (SEQ ID NO:42), 5′-[…] (SEQ ID NO:43), Probe #36; PTGES: 5′-agagatgcctgcccacag (SEQ ID NO:44), 5′-tggccaccacgtacatctt (SEQ ID NO:45), Probe #4; PTGES2: 5′-[…] (SEQ ID NO:46), 5′-[…] (SEQ ID NO:47), Probe #49; PTGES3 (SEQ ID NO:48), 5′-[…] (SEQ ID NO:49), 5′-[…] (SEQ ID NO:50), Probe #48; PTGIS: 5′-[…] (SEQ ID NO:51), 5′-[…] (SEQ ID NO:52), Probe #45; PTGR1: 5′-atgatggggcagcaagtg (SEQ ID NO:53), 5′-cccatcagaaatggagtgc (SEQ ID NO:54), Probe #64; PTGS1: 5′-[…] (SEQ ID NO:55), 5′-gtggtggtccatgttcctg (SEQ ID NO:56), Probe #81; PTGS2: 5′-gatccccagggctcaaac (SEQ ID NO:57), 5′-[…] (SEQ ID NO:58), Probe #61; TBXAS1: 5′-[…] (SEQ ID NO:59), 5′-tgcctcccgtgtgaatct (SEQ ID NO:60), Probe #73; AREG: 5′-[…] (SEQ ID NO:61), 5′-[…] (SEQ ID NO:62), Probe #73; CCL2: 5′-AGTCTCTGCCGCCCTTCT (SEQ ID NO:63), 5′-GTGACTGGGGCATTGATTG (SEQ ID NO:64), Probe #40; CCL27: 5′-[…] (SEQ ID NO:65), 5′-gctgggtggcagtaggaat (SEQ ID NO:66), Probe #18; CXCL1: 5′-[…] (SEQ ID NO:67), 5′-[…] (SEQ ID NO:68), Probe #52; HGF: 5′-[…] (SEQ ID NO:69), 5′-[…] (SEQ ID NO:70), Probe #49; ILIA: 5′-[…] (SEQ ID NO:71), 5′-[…] (SEQ ID NO:72), Probe #6; IL1B: 5′-[…] (SEQ ID NO:73), 5′-[…] (SEQ ID NO:74), Probe #78; IL6: 5′-[…] (SEQ ID NO:75), 5′-gaaggcagcaggcaacac (SEQ ID NO:76), Probe #45; IL8: 5′-[…] (SEQ ID NO:77), 5′-atggttccttccggtggt (SEQ ID NO:78), Probe #72; IL10: 5′-[…] (SEQ ID NO:79), 5′-[…] (SEQ ID NO:80), Probe #67; MMP3: 5′-[…] (SEQ ID NO:81), 5′-[…] (SEQ ID NO:82), Probe #36; PDGFA: 5′-[…] (SEQ ID NO:83), 5′-[…] […]

[3] = bleomycin-treated animals, day 14, ELISA

## Nc1nc(O)c2ncn(COC(CO)CO)c2n1 [GCV, ganciclovir]
[1]; 21 days after injury
  collagen content (hydroxyproline): reduced
[1]; [3]
  cysteinyl leukotrienes in bronchioalveolar lavage fluid (BALF): reduced
  prostaglandin E2 in bronchioalveolar lavage fluid (BALF): reduced
p16-positive cells; doxorubicin-treated p16-3MR mice, day 10
  eicosanoid synthase expression: reduced
p16-positive cells; p16-3MR mice aged 21 months
  eicosanoid synthase expression: not statistically significant
[2]; 14 days after bleomycin injury
  RNA levels of p16INK4a and p21WAF1 in lungs: significantly attenuated
[2]; bleomycin-injured mice, 21 days after injury as printed
  collagen expression (Col3a1 and Col4a1): reduced
